Values after ≈ are worked out from the molar mass of the structure shown.
Tests used:
Cytochrome P450 2C19 = Cytochrome P450 2C19 (Homo sapiens, UniProt P33261); test: Inhibition of CYP2C19 in human liver microsomes using isoform-specific probe substrates in presence of NADPH-generating system by LC-MS analysis; type: ADME
[1] = Intrinsic clearance in mouse liver microsomes at 1 uM by LC-MS analysis; type: ADME, Microsome
[2] = Inhibition of N-terminal His6-tagged Plasmodium falciparum DHODH expressed in Escherichia coli BL21 using L-DHO as substrate and CoQ as co-substrate by DCIP dye based spectrophotometric assay
[3] = Oral bioavailability in Sprague-Dawley rat at 18.2 mg/kg measured over 24 hrs by LC-MS analysis; type: ADME, organism-based; details: in vivo
[4] = Protein binding in rat plasma assessed as bound fraction by LC-MS analysis based ultracentrifugation assay; type: ADME, cell-free; details: read-out: PPB (converted)
Plasmodium falciparum [5] = test: Antiplasmodial activity against Plasmodium falciparum 3D7 infected in RBC assessed as reduction in parasitemia incubated for 72 hrs by SYBR green dye-based assay; type: functional, organism-based; details: rbc
[6] = AUC (0 to infinity) in Sprague-Dawley rat at 18.2 mg/kg, po measured over 24 hrs by LC-MS analysis; type: ADME, organism-based; set-up: route oral, dose 18.2 mg/kg, time >24; details: in vivo
[7] = Elimination half-life in Swiss mouse at 20 mg/kg, po administered as single dose via gavage measured over 24 hrs by LC-MS analysis; type: ADME, organism-based; details: in vivo, read-out: beta t1/2 (converted)
[8] = Inhibition of N-terminal His6-tagged dog DHODH expressed in Escherichia coli BL21 using L-DHO as substrate and CoQ as co-substrate by DCIP dye based spectrophotometric assay; set-up: species or system Canis lupus familiaris
[9] = Unbound Cmax in Swiss mouse at 20 mg/kg, po administered as single dose via gavage measured over 24 hrs by LC-MS analysis; type: ADME, organism-based; details: in vivo
[10] = Unbound AUC (0 to infinity) in Sprague-Dawley rat at 1.9 mg/kg, iv by LC-MS analysis; type: ADME, organism-based; details: in vivo
[11] = Protein binding in human plasma assessed as bound fraction by LC-MS analysis based ultracentrifugation assay; type: ADME, cell-free; details: read-out: PPB (converted)
[12] = Unbound AUC (0 to infinity) in Sprague-Dawley rat at 18.2 mg/kg, po measured over 24 hrs by LC-MS analysis; type: ADME, organism-based; details: in vivo
[13] = Lipophilicity, logD of the compound at pH 7.4; type: physicochemical; details: buffer
[14] = Cmax in Sprague-Dawley rat at 18.2 mg/kg, po measured over 24 hrs by LC-MS analysis; type: ADME, organism-based; set-up: route oral, dose 18.2 mg/kg, time >24; details: in vivo
[15] = Cmax in Swiss mouse at 20 mg/kg, po administered as single dose via gavage measured over 24 hrs by LC-MS analysis; type: ADME, organism-based; set-up: route oral, dose 20 mg/kg, time >24; details: in vivo
[16] = AUC (0 to infinity) in Sprague-Dawley rat at 1.9 mg/kg, iv administered as infusion for 10 mins by LC-MS analysis; type: ADME, organism-based; set-up: route intravenous, dose 1.9 mg/kg, time 10 min; details: in vivo
[17] = Solubility of compound in FaSSIF at pH 6.5 measured after 5 to 6 hrs by HPLC-UV based analysis
[18] = Apparent half-life in Sprague-Dawley rat at 1.9 mg/kg, iv administered as infusion for 10 mins by LC-MS analysis; type: ADME, organism-based; details: in vivo, read-out: t1/2(app) (converted)
[19] = AUC (0 to infinity) in Swiss mouse at 20 mg/kg, po administered as single dose via gavage measured over 24 hrs by LC-MS analysis; type: ADME, organism-based; set-up: route oral, dose 20 mg/kg, time >24; details: in vivo
[20] = Unbound Cmax in Sprague-Dawley rat at 18.2 mg/kg, po measured over 24 hrs by LC-MS analysis; type: ADME, organism-based; details: in vivo
[21] = Inhibition of N-terminal His6-tagged Plasmodium vivax DHODH expressed in Escherichia coli BL21 using L-DHO as substrate and CoQ as co-substrate by DCIP dye based spectrophotometric assay
[22] = Volume of distribution at steady state in Sprague-Dawley rat at 1.9 mg/kg, iv administered as infusion for 10 mins by LC-MS analysis; type: ADME, organism-based; details: in vivo
[23] = Unbound volume of distribution at steady state in Sprague-Dawley rat at 1.9 mg/kg, iv administered as infusion for 10 mins by LC-MS analysis; type: ADME, organism-based; details: in vivo
[24] = Intrinsic clearance in rat liver microsomes assessed per mg protein at 1 uM by LC-MS analysis; type: ADME, Microsome; details: microsomes, 1 µM
[25] = Protein binding in Sprague-Dawley rat plasma at 1.9 mg/kg, iv administered as infusion for 10 mins by LC-MS analysis; type: ADME, organism-based; details: read-out: PPB (converted)
[26] = Apparent half-life in Swiss mouse at 20 mg/kg, po administered as single dose via gavage measured over 24 hrs by LC-MS analysis; type: ADME, organism-based; details: in vivo
[27] = Unbound AUC (0 to infinity) in Swiss mouse at 20 mg/kg, po administered as single dose via gavage measured over 24 hrs by LC-MS analysis; type: ADME, organism-based; details: in vivo
[28] = Unbound clearance in Sprague-Dawley rat at 1.9 mg/kg, iv administered as infusion for 10 mins by LC-MS analysis; type: ADME, organism-based; details: in vivo
[29] = Protein binding in Swiss mouse plasma at 20 mg/kg, po administered as single dose via gavage measured over 24 hrs by LC-MS analysis; type: ADME, organism-based; details: read-out: PPB (converted)
[30] = Intrinsic clearance in human pooled liver microsomes assessed per mg protein at 1 uM by LC-MS analysis; type: ADME, Microsome; details: microsomes, 1 µM
[31] = Tmax in Swiss mouse at 20 mg/kg, po administered as single dose via gavage measured over 24 hrs by LC-MS analysis; type: ADME, organism-based; details: in vivo
Plasmodium falciparum [32] = test: Antiplasmodial activity against Plasmodium falciparum 3D7 infected in po dosed NSG mouse assessed as reduction in parasitemia administered once daily for 4 consecutive days starting from day 3 post-infection and measured 24 hrs post last dose by flow cytometric analysis; type: functional; details: 3D7, po, 96 h, time 4 day
[33] = Solubility of compound in FeSSIF at pH 5 measured after 5 to 6 hrs by HPLC-UV based analysis; type: physicochemical; details: simulated gi fluid, time 5-6 hrs
[34] = Kinetic solubility of compound in phosphate buffer at pH 6.5 measured after 30 mins by HPLC-UV based analysis; type: physicochemical; details: phosphate buffer, pH 6.5, read-out: Kinetic_solubility
in vivo = details: Sprague-Dawley, rat, po, 18.2 mg/kg

Cytochrome P450 2C19, sequence (P33261 whole entry, canonical isoform): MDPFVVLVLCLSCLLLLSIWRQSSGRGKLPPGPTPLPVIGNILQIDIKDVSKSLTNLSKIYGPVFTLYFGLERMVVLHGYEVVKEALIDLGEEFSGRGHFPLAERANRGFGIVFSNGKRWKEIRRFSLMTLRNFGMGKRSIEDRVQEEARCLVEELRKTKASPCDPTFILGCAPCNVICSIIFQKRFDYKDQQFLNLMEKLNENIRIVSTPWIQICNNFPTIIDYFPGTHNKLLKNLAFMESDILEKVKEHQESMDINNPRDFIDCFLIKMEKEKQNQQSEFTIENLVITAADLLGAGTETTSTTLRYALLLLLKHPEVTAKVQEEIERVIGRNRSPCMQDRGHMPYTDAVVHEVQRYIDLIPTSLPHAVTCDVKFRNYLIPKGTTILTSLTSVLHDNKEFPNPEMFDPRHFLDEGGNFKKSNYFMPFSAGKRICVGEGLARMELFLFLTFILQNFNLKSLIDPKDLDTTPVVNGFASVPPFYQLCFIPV

Question: Which IC50 (Cytochrome P450 2C19) does the source give for `Cc1cc(NC2CCc3cc(Cl)ccc3C2)n2nc(C(C)(F)F)nc2n1` (stereo in doubt) here?
Answer: Its IC50 is > 20000 nM.

Question: And the intrinsic clearance [1]?
Answer: The intrinsic clearance was 44 µL/min.

Question: What about the IC50 [2] of the same compound?
Answer: Its IC50 is 3.7 nM.

Question: What about the bioavailability [3] of the same compound?
Answer: The bioavailability was 100%.

Question: And the fraction unbound [4]?
Answer: Its fraction unbound is 0.008.

Question: What about the EC50 (Plasmodium falciparum [5]) of the same compound?
Answer: Its EC50 is 3.8 nM.

Question: What about the AUC(0-inf) [6] of the same compound?
Answer: Its AUC(0-inf) is 227 µM·h.

Question: What about the half-life [7] of the same compound?
Answer: The half-life was 2 h.

Question: What about the IC50 [8] of the same compound?
Answer: Its IC50 is > 100000 nM.

Question: And the fCmax [9]?
Answer: Its fCmax is 0.06 µM.

Question: And the fAUC [10]?
Answer: Its fAUC is 0.19 µM·h.

Question: What about the fraction unbound [11] of the same compound?
Answer: The fraction unbound was 0.012.

Question: What about the fAUC [12] of the same compound?
Answer: Its fAUC is 1.82 µM·h.

Question: What about the logD [13] of the same compound?
Answer: Its logD is 3.9.

Question: What about the Cmax [14] of the same compound?
Answer: The Cmax was 23.8 µM.

Question: What about the Cmax [15] of the same compound?
Answer: The Cmax was 7 µM.

Question: What about the AUC(0-inf) [16] of the same compound?
Answer: The AUC(0-inf) was 24 µM·h.

Question: What about the solubility [17] of the same compound?
Answer: Its solubility is 47 µg/mL (≈ 124 µM).

Question: And the half-life [18]?
Answer: Its half-life is 7.1 h.

Question: What about the AUC [19] of the same compound?
Answer: The AUC was 19.7 µM·h.

Question: What about the fCmax [20] of the same compound?
Answer: The fCmax was 0.19 µM.

Question: What about the IC50 [21] of the same compound?
Answer: The IC50 was 29 nM.

Question: What about the Vdss [22] of the same compound?
Answer: Its Vdss is 1.5 L/kg.

Question: And the fVdss [23]?
Answer: The fVdss was 188 L/kg.

Question: What about the “Intrinsic clearance in rat liver microsomes (uL/min/mg protein)” value [24] of the same compound?
Answer: The value was 33 µL/min.

Question: And the fraction unbound at 10 min [25]?
Answer: Its fraction unbound at 10 min is 0.008.

Question: What about the “t1/2(app)” value [26] of the same compound?
Answer: The value was 1.9 h.

Question: And the fAUC [27]?
Answer: Its fAUC is 0.16 µM·h.

Question: What about the CL free [28] of the same compound?
Answer: The CL free was 438 mL/min/kg.

Question: And the fraction unbound at 24 h [29]?
Answer: Its fraction unbound at 24 h is 0.008.

Question: What about the microsomal intrinsic clearance [30] of the same compound?
Answer: The microsomal intrinsic clearance was < 7 µL/min.

Question: What about the Tmax [31] of the same compound?
Answer: Its Tmax is 1 h.

Question: What about the ED90 (Plasmodium falciparum [32]) of the same compound?
Answer: Its ED90 is > 30 mg/kg.

Question: What about the solubility [33] of the same compound?
Answer: The solubility was 211 µg/mL (≈ 558 µM).

Question: What about the solubility kinetic at 0.5 h [34] of the same compound?
Answer: Its solubility kinetic at 0.5 h is 3.1 µg/mL (≈ 8.2 µM).

Question: What about the Tmax at 24 h (in vivo) of the same compound?
Answer: The Tmax at 24 h was 4 h.
